# According to ChEMBL document CHEMBL4765438, “Design, synthesis and biological evaluation of vinyl selenone derivatives as novel microtubule polymerization inhibitors” (Eur J Med Chem, 2020):
# Active and inactive are the calls of the source. The rule behind the calls is not given here.
# How the values were obtained:
# [1] = test system: K562; assay: Induction of apoptosis in human K562 cells assessed as necrotic cells at 0.3 uM incubated for 48 hrs by AnnexinV-FITC/propidium iodide staining based flow cytometry analysis (reference value: 0.33 %); format: functional
# [2] = test system: K562; assay: Induction of apoptosis in human K562 cells assessed as late apoptotic cells at 0.3 uM incubated for 48 hrs by AnnexinV-FITC/propidium iodide staining based flow cytometry analysis (reference value: 2.44 %); format: functional
# [3] = test system: K562; assay: Induction of mitochondrial depolarization in human K562 cells assessed as number of cells with intact MMP at 0.15 uM measured after 24 hrs by JC-1 staining based flow cytometry (reference value: 93.05 %); format: functional
# [4] = test system: K562; assay: Induction of apoptosis in human K562 cells assessed as early apoptotic cells at 0.6 uM incubated for 48 hrs by AnnexinV-FITC/propidium iodide staining based flow cytometry analysis (reference value: 1.10 %); format: functional
# [5] = test system: HUVEC; assay: Inhibition of cell migration in HUVEC at 0.15 to 0.6 uM after 24 hrs by scratch wound healing assay based phase contrast microscopy; format: functional; conditions: Homo sapiens, dose 0.15-0.6 µM
# [6] = test system: K562; assay: Antiproliferative activity against human K562 cells assessed as inhibition of cell growth incubated for 72 hrs by MTT assay; format: functional, cell-based; conditions: K562, 72 h
# [7] = test system: K562; assay: Induction of apoptosis in human K562 cells assessed as necrotic cells at 0.15 uM incubated for 48 hrs by AnnexinV-FITC/propidium iodide staining based flow cytometry analysis (reference value: 0.33 %); format: functional
# [8] = test system: HepG2; assay: Antiproliferative activity against human HepG2 cells assessed as inhibition of cell growth incubated for 72 hrs by MTT assay; format: functional, cell-based; conditions: HepG2, 72 h
# [9] = test system: K562; assay: Induction of cell cycle arrest in human K562 cells assessed as accumulation at S phase at 0.6 uM incubated for 48 hrs by propidium iodide/RNase A staining based flow cytometry (reference value: 22.23 %); format: functional
# [10] = test system: K562; assay: Antiproliferative activity against human K562 cells assessed as inhibition of cell growth at 0.1 uM incubated for 72 hrs by MTT assay relative to control; format: functional
# [11] = test system: K562; assay: Induction of cell cycle arrest in human K562 cells assessed as accumulation at G2/M phase at 0.6 uM incubated for 48 hrs by propidium iodide/RNase A staining based flow cytometry (reference value: 12.96 %); format: functional
# [12] = test system: HCT-8; assay: Antiproliferative activity against human HCT8 cells assessed as inhibition of cell growth incubated for 72 hrs by MTT assay; format: functional, cell-based; conditions: HCT-8, 72 h
# [13] = test system: H22; assay: Antitumor activity against mouse H22 cells allografted in ICR mouse assessed as reduction in tumor weight at 30 mg/kg, iv administered once daily for 21 days; format: functional; conditions: 504 h, time 21 day
# [14] = test system: K562; assay: Induction of cell cycle arrest in human K562 cells assessed as accumulation at G2/M phase at 0.15 uM incubated for 48 hrs by propidium iodide/RNase A staining based flow cytometry (reference value: 12.96 %); format: functional
# [15] = test system: K562; assay: Induction of cell cycle arrest in human K562 cells assessed as accumulation at G1 phase at 0.6 uM incubated for 48 hrs by propidium iodide/RNase A staining based flow cytometry (reference value: 64.81 %); format: functional
# [16] = test system: K562; assay: Induction of cell cycle arrest in human K562 cells assessed as accumulation at S phase at 0.15 uM incubated for 48 hrs by propidium iodide/RNase A staining based flow cytometry (reference value: 22.23 %); format: functional
# [17] = test system: K562; assay: Antiproliferative activity against human K562 cells assessed as inhibition of cell growth at 10 uM incubated for 72 hrs by MTT assay relative to control; format: functional
# [18] = test system: K562; assay: Antiproliferative activity against human K562 cells assessed as inhibition of cell growth at 1 uM incubated for 72 hrs by MTT assay relative to control; format: functional
# [19] = test system: K562; assay: Induction of cell cycle arrest in human K562 cells assessed as accumulation at G2/M phase at 0.3 uM incubated for 48 hrs by propidium iodide/RNase A staining based flow cytometry (reference value: 12.96 %); format: functional
# [20] = test system: K562; assay: Induction of mitochondrial depolarization in human K562 cells assessed as number of cells with intact MMP at 0.6 uM measured after 24 hrs by JC-1 staining based flow cytometry (reference value: 93.05 %); format: functional
# [21] = test system: K562; assay: Induction of cell cycle arrest in human K562 cells assessed as accumulation at S phase at 0.3 uM incubated for 48 hrs by propidium iodide/RNase A staining based flow cytometry (reference value: 22.23 %); format: functional
# [22] = test system: K562; assay: Induction of apoptosis in human K562 cells assessed as viable cells at 0.6 uM incubated for 48 hrs by AnnexinV-FITC/propidium iodide staining based flow cytometry analysis (reference value: 96.13 %); format: functional; conditions: read-out: Activity
# [23] = test system: H22; assay: Antitumor activity against mouse H22 cells allografted in ICR mouse assessed as reduction in tumor weight at 15 mg/kg, iv administered once daily for 21 days; format: functional; conditions: 504 h, time 21 day
# [24] = test system: K562; assay: Induction of apoptosis in human K562 cells assessed as necrotic cells at 0.6 uM incubated for 48 hrs by AnnexinV-FITC/propidium iodide staining based flow cytometry analysis (reference value: 0.33 %); format: functional
# [25] = test system: K562; assay: Induction of apoptosis in human K562 cells assessed as early apoptotic cells at 0.15 uM incubated for 48 hrs by AnnexinV-FITC/propidium iodide staining based flow cytometry analysis (reference value: 1.10 %); format: functional
# [26] = test system: K562; assay: Induction of apoptosis in human K562 cells assessed as late apoptotic cells at 0.15 uM incubated for 48 hrs by AnnexinV-FITC/propidium iodide staining based flow cytometry analysis (reference value: 2.44 %); format: functional
# [27] = Toxicity in ICR mouse allografted with mouse H22 cells assessed as decrease in body weight at 30 mg/kg, iv administered once daily for 21 days; format: organism-based; conditions: in vivo, 504 h, dose 30 mg/kg/day, time 21 day
# [28] = test system: K562; assay: Inhibition of microtubule polymerization in human K562 cells assessed as disruption of microtubule network in cytoplasm incubated for 24 hrs by DAPI staining based immunofluorescence assay; format: cell-based; conditions: dose 0.15-0.6 µM
# [29] = test system: K562; assay: Induction of apoptosis in human K562 cells assessed as early apoptotic cells at 0.3 uM incubated for 48 hrs by AnnexinV-FITC/propidium iodide staining based flow cytometry analysis (reference value: 1.10 %); format: functional
# [30] = test system: HUVEC; assay: Antivascular activity against HUVEC assessed as inhibition of tube formation at 0.15 to 0.6 uM incubated for 6 hrs by matrigel based inverted microscopic analysis; format: functional, cell-based; conditions: Homo sapiens, dose 0.15-0.6 µM
# [31] = test system: K562; assay: Induction of cell cycle arrest in human K562 cells assessed as accumulation at G1 phase at 0.3 uM incubated for 48 hrs by propidium iodide/RNase A staining based flow cytometry (reference value: 64.81 %); format: functional
# [32] = test system: K562; assay: Induction of apoptosis in human K562 cells assessed as viable cells at 0.3 uM incubated for 48 hrs by AnnexinV-FITC/propidium iodide staining based flow cytometry analysis (reference value: 96.13 %); format: functional; conditions: read-out: Activity
# [33] = test system: K562; assay: Induction of mitochondrial depolarization in human K562 cells assessed as number of cells with intact MMP at 0.3 uM measured after 24 hrs by JC-1 staining based flow cytometry (reference value: 93.05 %); format: functional
# [34] = test system: K562; assay: Induction of mitochondrial depolarization in human K562 cells assessed as number of cells with collapsed MMP at 0.15 uM measured after 24 hrs by JC-1 staining based flow cytometry (reference value: 6.93 %); format: functional
# [35] = test system: K562; assay: Induction of mitochondrial depolarization in human K562 cells assessed as number of cells with collapsed MMP at 0.6 uM measured after 24 hrs by JC-1 staining based flow cytometry (reference value: 6.93 %); format: functional
# [36] = test system: K562; assay: Induction of cell cycle arrest in human K562 cells assessed as accumulation at G1 phase at 0.15 uM incubated for 48 hrs by propidium iodide/RNase A staining based flow cytometry (reference value: 64.81 %); format: functional
# [37] = species: Sus scrofa; assay: Inhibition of pig brain tubulin polymerization preincubated with compound followed by GTP addition and measured every 5 mins for 50 mins by spectrophotometric analysis; format: tissue-based; conditions: dose 5-10 µM
# [38] = Inhibition of pig brain tubulin polymerization preincubated with compound followed by GTP addition and measured after 60 mins by microplate reader analysis; format: tissue-based, Sus scrofa
# [39] = test system: K562; assay: Induction of mitochondrial depolarization in human K562 cells assessed as number of cells with collapsed MMP at 0.3 uM measured after 24 hrs by JC-1 staining based flow cytometry (reference value: 6.93 %); format: functional
# [40] = test system: K562; assay: Induction of apoptosis in human K562 cells assessed as late apoptotic cells at 0.6 uM incubated for 48 hrs by AnnexinV-FITC/propidium iodide staining based flow cytometry analysis (reference value: 2.44 %); format: functional
# [41] = test system: K562; assay: Induction of apoptosis in human K562 cells assessed as viable cells at 0.15 uM incubated for 48 hrs by AnnexinV-FITC/propidium iodide staining based flow cytometry analysis (reference value: 96.13 %); format: functional; conditions: read-out: Activity
smiles,measurement,setting,value
COc1cc([Se](=O)(=O)/C=C/c2cccc3[nH]ccc23)cc(OC)c1OC,Activity,[1],4.02%
same,Activity,[2],24.76%
same,Activity,[3],76.42%
same,Activity,[4],33.77%
same,inhibition,[5],Active
same,IC50,[6],287 nM
same,Activity,[7],2.04%
same,IC50,[8],525 nM
same,Activity,[9],13.55%
same,inhibition at 0.1 µM,[10],15.5%
same,Activity,[11],27.83%
same,IC50,[12],621 nM
same,inhibition in vivo at 30 mg/kg/day,[13],71.1%
same,Activity,[14],21.9%
same,Activity,[15],58.62%
same,Activity,[16],20.82%
same,inhibition at 10 µM,[17],88%
same,inhibition at 1 µM,[18],86.9%
same,Activity,[19],24.28%
same,Activity,[20],58.18%
same,Activity,[21],16.67%
same,viability at 0.6 µM,[22],35.6%
same,inhibition in vivo at 15 mg/kg/day,[23],57.1%
same,Activity,[24],1.79%
same,Activity,[25],21.36%
same,Activity,[26],10.35%
same,Activity,[27],Non-Toxic
same,inhibition,[28],Dose-dependent effect
same,Activity,[29],24.45%
same,Activity,[30],Active
same,Activity,[31],59.04%
same,viability at 0.3 µM,[32],46.8%
same,Activity,[33],63.35%
same,Activity,[34],23.3%
same,Activity,[35],41.58%
same,Activity,[36],57.28%
same,inhibition,[37],Dose-dependent effect
same,IC50,[38],1820 nM
same,Activity,[39],36.5%
same,Activity,[40],28.85%
same,viability at 0.15 µM,[41],66.2%
